Results reported in patent US7901667B2, “Bridgehead labelled compounds and methods of using the same” (Mallinckrodt Inc., priority 2005, dated 2011).
Blank lines part the entries; values can stand above or below the compound they belong to.

Assays:
[1] = X = Tosylate, relative to tert-Butyl, cited from earlier work; for Relative rate of hydrolysis, calc.: calculated; for Relative rate of hydrolysis, exp.: experimental
5-HT1A receptors = target: T1, 5-HT1A receptors (Homo sapiens, UniProt P08908); details: cited from earlier work
T1 sequence (P08908 1-422): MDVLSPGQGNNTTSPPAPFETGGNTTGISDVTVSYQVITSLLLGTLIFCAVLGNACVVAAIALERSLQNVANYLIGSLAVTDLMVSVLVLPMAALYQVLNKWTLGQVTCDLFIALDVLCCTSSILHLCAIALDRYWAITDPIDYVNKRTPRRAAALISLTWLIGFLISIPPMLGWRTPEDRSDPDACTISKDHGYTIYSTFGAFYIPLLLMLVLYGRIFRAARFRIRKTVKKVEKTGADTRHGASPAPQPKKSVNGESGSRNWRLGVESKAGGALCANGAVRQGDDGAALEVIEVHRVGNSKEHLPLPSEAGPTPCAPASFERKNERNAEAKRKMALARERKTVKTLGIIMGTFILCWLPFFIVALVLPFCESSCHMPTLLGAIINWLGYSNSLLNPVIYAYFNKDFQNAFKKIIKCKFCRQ

[2] = amide hydrolysis; cited from earlier work
[3] = at 60 min, relative to whole brain average; cited from earlier work
α1-adrenoceptors = details: cited from earlier work
[4] = target: T2, human recombinant human 5-HT1A receptor subtype (Homo sapiens, UniProt P08908); experiment: competitive binding assay with [^3H]8-OH-DPAT on membranes of HEK-293 EBNA-cells
T2 construct: purchased Perkin Elmer (Boston, USA); host or cells: HEK-293 EBNA cells (membrane suspension)
T2 sequence (P08908 1-422): T1 sequence (P08908 1-422)
Experimental: A membrane suspension from HEK-293 EBNA-cells expressing the human recombinant human 5-HT1A receptor subtype, was obtained from Perkin Elmer (Boston, USA). The protein concentration of the original suspension was 36.8 mg/mL.
Aliquots of these diluted membranes (factor 1:20) were incubated on microplates for 120 min at 37° C. in the dark. […] The incubation buffer contained 50 mM TRIS-HCl and 5 mM MgSO4 (pH to 7.4 at 25° C.). […] Non-specific binding was determined using 5-hydroxytryptamine (5-HT, serotonin) as a competitor in a concentration of 10 μM.
After the incubation period, the reaction was rapidly terminated by vacuum filtration over a GF/C glass fiber filters that were incorporated in the microplates and that were presoaked in 0.5% polyethylenimine (Sigma-Aldrich, Munich, Germany), and washed 5 times with ice-cold TRIS-HCl buffer. 25 μL of scintillation fluid (MicroScint™, Perkin Elmer, Boston, USA) were added to each well, after which the microplates were counted in a liquid scintillation counter (Topcount, Packard).
For each candidate tracer, the inhibition constant (Ki) was calculated from the […] for the 5-HT1A receptor with non-linear regression curve fitting using the computer program Graphpad Prism® (version 3.02).

Compound: Cc1ccc(S(=O)(=O)OC23CC4CC(CC(C4)C2)C3)cc1 [1-Adamantyl]
Relative rate of hydrolysis, calc. [1]: 10^−4
Relative rate of hydrolysis, exp. [1]: 10^−3

Compound: Cc1ccc(S(=O)(=O)OC23CCC(CC2)CC3)cc1 [1-Bicyclo[2.2.2]octyl]
Relative rate of hydrolysis, calc. [1]: 10^−8
Relative rate of hydrolysis, exp. [1]: 10^−7

Compound: Cc1ccc(S(=O)(=O)OC23CCC(CC2)C3)cc1 [1-Norbornyl]
Relative rate of hydrolysis, calc. [1]: 10^−14
Relative rate of hydrolysis, exp. [1]: 10^−13

Compound: COc1ccccc1N1CCN(CCN(C(=O)C2CC3CCC2CC3)c2ccccn2)CC1 (stereo not drawn) [CPC-222]
affinity with regard to WAY-100635 (5-HT1A receptors): comparable affinity
stability towards hydrolysis [2]: stable towards hydrolysis

Compound: Cc1ccc(S(=O)(=O)OC23C4C5C6C4C2C6C53)cc1 (stereo not drawn) [Cubyl]
Relative rate of hydrolysis, calc. [1]: <10^−25
Relative rate of hydrolysis, exp. [1]: 10^−10

Compound: COc1ccccc1N1CCN(CCN(C(=O)C2CCC(F)CC2)c2ccccn2)CC1 (stereo not drawn) [FCWAY]
skull uptake of [^18F] [3]: twice the whole brain average

Compound: COc1ccccc1N1CCN(CCN(C(=O)c2ccc(F)cc2)c2ccccn2)CC1 [MPPF]
affinity for the α1-adrenoceptors (α1-adrenoceptors): quite high affinity

Compound: COc1ccccc1N1CCN(CCN(C(=O)c2ccc([123I])cc2)c2ccccn2)CC1 [MPPI]
affinity for the α1-adrenoceptors (α1-adrenoceptors): quite high affinity

affinity towards the human 5-HT1A (Ki) ([4]; [^3H]8-OH-DPAT 1.1 nM, 120 min at 37° C., n=4, values only in FIG. 6): subnanomolar range
rank of affinity among the bridgehead iodo WAY derivatives ([4]; iodobicyclooctyl, iodoadamantyl, iodonorbornyl and iodocubyl compared, FIG. 6): highest affinity
Compound: COc1ccccc1N1CCN(CCN(C(=O)C23C4C5C2C2C3C4C52I)c2ccccn2)CC1 (stereo not drawn) [iodocubyl-WAY]
